Results on 12 compounds are retold here after ChEMBL document CHEMBL1201862, “PubChem BioAssay data set” (2004).

The term GI50 denotes the concentration giving 50% growth inhibition.

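Five compound concentrations were applied to cells in 96-well plates for 48 hours; endpoints were derived by simple linear interpolation of the resulting dose-response curve. At the GI50, growth is halved.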 Activity calls are given as the source filed them. No stated cut-off is given here; in the data, active = GI50 up to about 1.1 µM and inactive = higher.

Some test systems named below: UO-31; OVCAR-5; KM-20L2; SF-539; A498; HOP-92; UACC-257; U-251; SK-MEL-28; HOP-62; HL-60; OVCAR-8; NCI-H226; SNB-19; MOLT-4; K562.
What all share (test): DTP human tumour cell line panel, 48 h

For the compound `CCN(CC)C(=S)SCC(=O)Nc1nc2c(s1)CCCC2`, the GI50 in the assay on UO-31 was 36.7 µM (inactive); in the assay with OVCAR-5, > 100 µM (inactive); with KM-20L2 it was > 100 µM (inactive); in the assay on SF-539, > 100 µM (inactive); with A498, > 100 µM (inactive); in the assay on HOP-92 it was 68.2 µM (inactive). The GI50 is 36.9 µM (inactive) with UACC-257; 70.1 µM (inactive) with U-251; > 100 µM (inactive) in the assay on SK-MEL-28; > 100 µM (inactive) in the assay on HOP-62; 19.4 µM (inactive) with HL-60; > 100 µM (inactive) in the assay on OVCAR-8. Besides, the GI50 is > 100 µM (inactive) in the assay with NCI-H226, > 100 µM (inactive) in the assay on SNB-19 and 41.4 µM (inactive) in the assay on MOLT-4.
On to `CCC(=O)OC1CCn2c1nc1c2C(=O)C(C)=C(NC(C)=O)C1=N` (stereo not drawn), for which the GI50 with UO-31 was 2.2 µM (inactive); with OVCAR-5, 1.87 µM (inactive); in the assay with KM-20L2, 1.73 µM (inactive); with SF-539, 1.74 µM (inactive); in the assay on A498 it was 1.82 µM (inactive); in the assay with HOP-92, 2.21 µM (inactive). The GI50 in the assay on K562 is 2.34 µM (inactive); in the assay on UACC-257, 1.24 µM (inactive); in the assay with U-251, 3.74 µM (inactive); in the assay on SK-MEL-28, 2.05 µM (inactive); with HOP-62, 1.83 µM (inactive); with HL-60, 0.774 µM (active). Besides, the GI50 in the assay with OVCAR-8 was 1.04 µM (active); in the assay with NCI-H226 it was 1.93 µM (inactive); in the assay on SNB-19, 5.26 µM (inactive); in the assay on MOLT-4, 1.54 µM (inactive).
In the case of `COC(=O)c1c2cccccc-2c(Cc2c3cccccc-3c(C(=O)OC)c2O)c1O`, the GI50 with UO-31, in the assay with OVCAR-5, in the assay with KM-20L2, with SF-539, in the assay with A498 and in the assay on HOP-92 was > 100 µM (inactive) in each case. Moreover, the GI50 in the assay with K562, with UACC-257, in the assay with U-251, with SK-MEL-28, in the assay with HOP-62 and in the assay on HL-60 was > 100 µM (inactive) throughout. Moreover, the GI50 in the assay with OVCAR-8, in the assay with NCI-H226, with SNB-19 and with MOLT-4 was > 100 µM (inactive) each time.
`COc1cc2c(c(OC)c1)C(=O)C(=O)C(CC1(C)OCCCO1)=C2`: the GI50 with UO-31 was 12.7 µM (inactive); in the assay on OVCAR-5, 22.9 µM (inactive); with KM-20L2, 17.9 µM (inactive); in the assay with SF-539 it was 17.5 µM (inactive); in the assay on A498, 17.2 µM (inactive); with HOP-92, 1.89 µM (inactive). In addition, the GI50 in the assay with K562 is 2.29 µM (inactive); with UACC-257 it was 14.1 µM (inactive); in the assay on U-251, 15.3 µM (inactive); in the assay with SK-MEL-28 it was 15.2 µM (inactive); in the assay on HOP-62 it was 17.5 µM (inactive); with HL-60, 1.85 µM (inactive). The GI50 is 11.5 µM (inactive) in the assay with OVCAR-8, 6.17 µM (inactive) in the assay with NCI-H226, 22.2 µM (inactive) with SNB-19 and 3.27 µM (inactive) in the assay with MOLT-4.
In the case of `O=C(Cn1ccnc1[N+](=O)[O-])c1ccccc1`, the GI50 in the assay with UO-31, with OVCAR-5, in the assay on KM-20L2, with SF-539, in the assay on A498 and with HOP-92 was > 100 µM (inactive) in each case. Also, the GI50 in the assay with K562, in the assay with UACC-257, in the assay on SK-MEL-28, with HOP-62, in the assay on HL-60 and in the assay on OVCAR-8 was > 100 µM (inactive) throughout. Moreover, the GI50 in the assay with NCI-H226, with SNB-19 and in the assay with MOLT-4 was > 100 µM (inactive) throughout.
As to `CCOC(=O)/C(C#N)=C(O)/C(=C\c1ccc(Br)cc1)NC(=O)c1ccccc1`, the GI50 with UO-31, in the assay on OVCAR-5, in the assay on KM-20L2, in the assay on SF-539, in the assay with A498 and in the assay with HOP-92 was > 100 µM (inactive) each time. Moreover, the GI50 in the assay with K562, with UACC-257, in the assay with U-251, in the assay with SK-MEL-28, in the assay on HOP-62 and with HL-60 was > 100 µM (inactive) throughout. In addition, the GI50 is > 100 µM (inactive) in the assay with OVCAR-8, 30.4 µM (inactive) in the assay on NCI-H226, > 100 µM (inactive) in the assay on SNB-19 and > 100 µM (inactive) in the assay with MOLT-4.
`CCOc1cc2c(cc1OC)c[n+](C)c1c3cc(OC)c(OC)cc3ccc21`: the GI50 was > 100 µM (inactive) in the assay on UO-31; > 49.1 µM (inactive) with OVCAR-5; > 100 µM (inactive) in the assay on KM-20L2; > 100 µM (inactive) in the assay with SF-539; 47.6 µM (inactive) in the assay with A498; 27 µM (inactive) with HOP-92. The GI50 is > 34.3 µM (inactive) with K562; > 61.4 µM (inactive) in the assay on UACC-257; > 33.4 µM (inactive) in the assay with U-251; > 64.1 µM (inactive) in the assay with SK-MEL-28; > 81.7 µM (inactive) with HOP-62; 17.2 µM (inactive) in the assay on HL-60. Also, the GI50 was > 60.3 µM (inactive) in the assay with OVCAR-8, > 57.1 µM (inactive) with NCI-H226, > 52.5 µM (inactive) in the assay on SNB-19 and > 81.3 µM (inactive) in the assay on MOLT-4.
In the case of `Cn1cc2ccccc2c1-c1nc(F)nc(OCC(=O)[C@H]2CCC3[C@@H]4CCC5=CC(=O)CC[C@]5(C)C4[C@@H](O)C[C@@]32C)n1` (stereo partly drawn), the GI50 is 19.6 µM (inactive) in the assay on UO-31; 37.8 µM (inactive) with OVCAR-5; 26.1 µM (inactive) in the assay on KM-20L2; 17.8 µM (inactive) in the assay on SF-539; 17.3 µM (inactive) in the assay on A498; 19.8 µM (inactive) with HOP-92. The GI50 in the assay with K562 is 2.91 µM (inactive); with UACC-257 it was 18.8 µM (inactive); in the assay on U-251 it was 19.4 µM (inactive); with SK-MEL-28, 11.2 µM (inactive); in the assay on HOP-62, 22 µM (inactive); in the assay on HL-60, 6.27 µM (inactive). Besides, the GI50 was 7.13 µM (inactive) in the assay with OVCAR-8, 19.2 µM (inactive) in the assay with NCI-H226, 19.4 µM (inactive) in the assay with SNB-19 and 4.83 µM (inactive) in the assay with MOLT-4.
Regarding `CC[N+](C)(CC)CC(C)(C)C(=O)/C=C/c1ccc(/C=C/C(=O)C(C)(C)C[N+](C)(CC)CC)cc1`, the GI50 with UO-31, in the assay on OVCAR-5, in the assay on KM-20L2, in the assay on SF-539, in the assay with A498 and in the assay with HOP-92 was > 100 µM (inactive) each time. For the same compound, the GI50 in the assay on K562, in the assay with UACC-257, with U-251, in the assay with SK-MEL-28, with HOP-62 and in the assay on HL-60 was > 100 µM (inactive) in each case. The GI50 in the assay with OVCAR-8, in the assay on NCI-H226, in the assay with SNB-19 and in the assay on MOLT-4 was > 100 µM (inactive) in each case.
As to `CCOC(OCC)c1ccc(/C=C/c2cc(OC)c(OC)c(OC)c2)cc1`, the GI50 with UO-31 is 15.1 µM (inactive); in the assay with OVCAR-5, 11.4 µM (inactive); in the assay on KM-20L2 it was 18.7 µM (inactive); in the assay on SF-539, 15.8 µM (inactive); with A498 it was 18.8 µM (inactive); with HOP-92 it was 21.8 µM (inactive). Also, the GI50 is 17.1 µM (inactive) in the assay with K562; 20.2 µM (inactive) with UACC-257; 16.3 µM (inactive) in the assay on U-251; 21 µM (inactive) in the assay with SK-MEL-28; 19.8 µM (inactive) in the assay on HOP-62; 11.7 µM (inactive) in the assay on HL-60. For the same compound, the GI50 is 26.9 µM (inactive) in the assay with OVCAR-8, 30.4 µM (inactive) in the assay with NCI-H226 and 29 µM (inactive) with SNB-19.
`C=C(COC(C)=O)CC(/C=C(\C)CC/C=C(\C)CO)OC(C)=O` (stereo not drawn): the GI50 in the assay on UO-31 was > 100 µM (inactive); with OVCAR-5, > 100 µM (inactive); with KM-20L2, > 100 µM (inactive); with SF-539, > 100 µM (inactive); in the assay with A498, > 100 µM (inactive); in the assay with HOP-92 it was 54.8 µM (inactive). Further, the GI50 in the assay on K562, in the assay on U-251, in the assay with SK-MEL-28, with HOP-62, with HL-60 and with OVCAR-8 was > 100 µM (inactive) each time. Besides, the results for the GI50 in the assay on NCI-H226, in the assay on SNB-19 and in the assay with MOLT-4 were > 100 µM (inactive), > 100 µM (inactive) and 35.1 µM (inactive), respectively.
As to `COc1ccc2[nH]c3c4c(cc(-c5ccccc5)c3c2c1)C(=O)N(c1ccccc1)C4=O`, the GI50 with UO-31 is 28.5 µM (inactive); with OVCAR-5, > 100 µM (inactive); with KM-20L2, > 100 µM (inactive); in the assay on SF-539, 2 µM (inactive); in the assay on A498, > 45.6 µM (inactive); with HOP-92, 17.6 µM (inactive). In addition, the GI50 in the assay with K562 was 22.1 µM (inactive); with UACC-257, 35.3 µM (inactive); in the assay with U-251 it was 5.98 µM (inactive); in the assay on SK-MEL-28, 37.9 µM (inactive); with HOP-62, 14.2 µM (inactive); in the assay on HL-60 it was 38.5 µM (inactive). For the same compound, the GI50 in the assay on OVCAR-8 is 6.05 µM (inactive); with NCI-H226, 25.1 µM (inactive); in the assay with SNB-19, 23.6 µM (inactive); with MOLT-4, 19.5 µM (inactive).
